How the values were obtained:
late watergrass [1] = experiment: Test Example 1: herbicidal activity, application before weed generation under submerged conditions (Table 16, symbol A); type: in vivo, late watergrass (Echinochloa oryzicola); conditions: 320 g/ha applied herbicide
Summary of the method: (§1)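 Emulsion formulation, water-diluted to set dose, was put onto the flooded surface (4 cm depth, alluvial soil) the same day weeds were sown and 2.5-leaf rice transplanted. After 3 weeks at 25-30 °C under glass, each species was rated 0 (≤5% kill) to 5 (≥90% kill).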

Japanese bulrush = experiment: Test Example 1: herbicidal activity, application before weed generation under submerged conditions (Table 16, symbol B); type: in vivo, Japanese bulrush (Schoenoplectus juncoides); conditions: 320 g/ha applied herbicide
Summary of the method: as §1

late watergrass [2] = experiment: Test Example 2: herbicidal activity, application during weed generation under submerged conditions (Table 17, symbol A); type: in vivo, late watergrass (Echinochloa oryzicola); conditions: AAH 320 g/ha; application during weed generation, submerged conditions
Summary of the method: (§2)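 In this pot test, flooded alluvial soil (water depth 4 cm) holds all three species sown as a mixture. Once seedlings have one to two leaves, the compound's emulsion, thinned with water to the intended dose, is poured on the water; grading follows after three weeks on the earlier criteria.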

oval-leafed pondweed = experiment: Test Example 2: herbicidal activity, application during weed generation under submerged conditions (Table 17, symbol C); type: in vivo, oval-leafed pondweed (Monochoria vaginalis); conditions: AAH 320 g/ha; application during weed generation, submerged conditions
Summary of the method: as §2

barnyard grass [3] = experiment: Test Example 3: herbicidal effect by foliage application, Wagner pot (Table 18, symbol H); type: in vivo, barnyard grass (Echinochloa crus-galli); conditions: 320 g/ha
Summary of the method: (§3)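 Plants were sown in alluvial soil held under 0.1–0.5 cm standing water and grown 14 days in a greenhouse at 25–30 °C. An emulsifiable formulation, water-diluted to the set dose, was then sprayed onto the foliage, and effects were scored three weeks later using previously defined criteria.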

Chinese sprangletop = experiment: Test Example 3: herbicidal effect by foliage application, Wagner pot (Table 18, symbol D); type: in vivo, chinese sprangletop (Leptochloa chinensis); conditions: 320 g/ha
Summary of the method: as §3

rice flat sedge = experiment: Test Example 3: herbicidal effect by foliage application, Wagner pot (Table 18, symbol E); type: in vivo, rice flat sedge (Cyperus iria); conditions: 320 g/ha
Summary of the method: as §3

Italian ryegrass [4] = experiment: Test Example 4: herbicidal effect by soil treatment (Table 19, symbol K); type: in vivo, Italian ryegrass (Lolium multiflorum)
Summary of the method: (§4)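 Three weeks of greenhouse growth at 25° C. to 30° C. followed a uniform surface spray of water-diluted emulsion at a predetermined herbicide amount. Seeds had been sown beforehand under about 1.5 cm of sterilized diluvial soil. Grading followed criteria set out in an earlier test.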

windgrass = experiment: Test Example 4: herbicidal effect by soil treatment (Table 19, symbol L); type: in vivo, windgrass (Apera spica-venti)
Summary of the method: as §4

redroot pigweed [5] = experiment: Test Example 4: herbicidal effect by soil treatment (Table 19, symbol N); type: in vivo, redroot pigweed (Amaranthus retroflexus)
Summary of the method: as §4

green foxtail = experiment: Test Example 5: herbicidal effect by foliage application, plastic box (Table 20, symbol G); type: in vivo, green foxtail (Setaria viridis); conditions: foliage application, 320 g/ha, evaluated three weeks after application
Summary of the method: (§5)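 Plants sown in sterilized diluvial soil and grown 14 days in a greenhouse at 25° C to 30° C, then sprayed on the foliage with the compound's emulsion diluted in water to a predetermined herbicide amount. Injury to weeds and crops scored three weeks after application on a visual rating scale.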

barnyard grass [6] = experiment: Test Example 5: herbicidal effect by foliage application, plastic box (Table 20, symbol H); type: in vivo, barnyard grass (Echinochloa crus-galli); conditions: foliage application, 320 g/ha, evaluated three weeks after application
Summary of the method: as §5

wild oat = experiment: Test Example 5: herbicidal effect by foliage application, plastic box (Table 20, symbol I); type: in vivo, wild oat (Avena fatua); conditions: foliage application, 320 g/ha, evaluated three weeks after application
Summary of the method: as §5

blackgrass = experiment: Test Example 5: herbicidal effect by foliage application, plastic box (Table 20, symbol J); type: in vivo, blackgrass (Alopecurus myosuroides); conditions: foliage application, 320 g/ha, evaluated three weeks after application
Summary of the method: as §5

Italian ryegrass [7] = experiment: Test Example 5: herbicidal effect by foliage application, plastic box (Table 20, symbol K); type: in vivo, Italian ryegrass (Lolium multiflorum); conditions: foliage application, 320 g/ha, evaluated three weeks after application
Summary of the method: as §5

redroot pigweed [8] = experiment: Test Example 5: herbicidal effect by foliage application, plastic box (Table 20, symbol N); type: in vivo, redroot pigweed (Amaranthus retroflexus); conditions: foliage application, 320 g/ha, evaluated three weeks after application
Summary of the method: as §5

[9] = amount of applied herbicide 320 g/ha

## CCCC(=O)Oc1c(C)nn(C)c(=O)c1-c1c(-c2ccc3c(c2)OCO3)sc2ccc(F)cc12 [2-091]
Late watergrass [1]
  Herbicidal effect on A: late watergrass (grade 0-5): 3 (Herbicidal rate of 40% or more and less than 70%)
Japanese bulrush
  Herbicidal effect on B: Japanese bulrush (grade 0-5): 4 (Herbicidal rate of 70% or more and less than 90%)
Late watergrass [2]
  herbicidal effect rating, A: late watergrass: 0 (Herbicidal rate of 5% or less (almost no effect))
oval-leafed pondweed
  herbicidal effect rating, C: oval-leafed pondweed: 4 (Herbicidal rate of 70% or more and less than 90%)
Barnyard grass [3]
  herbicidal effect on H (barnyard grass), rating 0-5: 3 (Herbicidal rate of 40% or more and less than 70%)
Chinese sprangletop
  herbicidal effect on D (Chinese sprangletop), rating 0-5: 3 (Herbicidal rate of 40% or more and less than 70%)
Rice flat sedge
  herbicidal effect on E (rice flat sedge), rating 0-5: 5 (Herbicidal rate of 90% or more (almost completely withered))
Italian ryegrass [4]; 320 g/ha
  herbicidal effect rating, K: Italian ryegrass: 3 (Herbicidal rate of 40% or more and less than 70%)
windgrass; 320 g/ha
  herbicidal effect rating, L: windgrass: 0 (Herbicidal rate of 5% or less (almost no effect))
Redroot pigweed [5]; 320 g/ha
  herbicidal effect rating, N: redroot pigweed: 5 (Herbicidal rate of 90% or more (almost completely withered))
Green foxtail
  herbicidal effect on G: green foxtail: 1 (Herbicidal rate of 5% or more and less than 20%)
Barnyard grass [6]
  herbicidal effect on H: barnyard grass: 3 (Herbicidal rate of 40% or more and less than 70%)
Wild oat
  herbicidal effect on I: wild oat: 0 (Herbicidal rate of 5% or less (almost no effect))
blackgrass
  herbicidal effect on J: blackgrass: 3 (Herbicidal rate of 40% or more and less than 70%)
Italian ryegrass [7]
  herbicidal effect on K: Italian ryegrass: 4 (Herbicidal rate of 70% or more and less than 90%)
Redroot pigweed [8]
  herbicidal effect on N: redroot pigweed: 3 (Herbicidal rate of 40% or more and less than 70%)

## CCCC(=O)Oc1c(C)nn(C)c(=O)c1-c1c(-c2ccc(Cl)cc2)sc2ccc(Cl)cc12 [2-100]
Late watergrass [1]
  Herbicidal effect on A: late watergrass (grade 0-5): 3 (Herbicidal rate of 40% or more and less than 70%)
Japanese bulrush
  Herbicidal effect on B: Japanese bulrush (grade 0-5): 3 (Herbicidal rate of 40% or more and less than 70%)
Late watergrass [2]
  herbicidal effect rating, A: late watergrass: 3 (Herbicidal rate of 40% or more and less than 70%)
oval-leafed pondweed
  herbicidal effect rating, C: oval-leafed pondweed: 0 (Herbicidal rate of 5% or less (almost no effect))
Barnyard grass [3]
  herbicidal effect on H (barnyard grass), rating 0-5: 5 (Herbicidal rate of 90% or more (almost completely withered))
Chinese sprangletop
  herbicidal effect on D (Chinese sprangletop), rating 0-5: 4 (Herbicidal rate of 70% or more and less than 90%)
Rice flat sedge
  herbicidal effect on E (rice flat sedge), rating 0-5: 3 (Herbicidal rate of 40% or more and less than 70%)
Italian ryegrass [4]; [9]
  K: Italian ryegrass, herbicidal effect rating: 3 (Herbicidal rate of 40% or more and less than 70%)
windgrass; [9]
  L: windgrass, herbicidal effect rating: 3 (Herbicidal rate of 40% or more and less than 70%)
Redroot pigweed [5]; [9]
  N: redroot pigweed, herbicidal effect rating: 4 (Herbicidal rate of 70% or more and less than 90%)
Green foxtail
  herbicidal effect on G: green foxtail: 4 (Herbicidal rate of 70% or more and less than 90%)
Barnyard grass [6]
  herbicidal effect on H: barnyard grass: 5 (Herbicidal rate of 90% or more (almost completely withered))
Wild oat
  herbicidal effect on I: wild oat: 5 (Herbicidal rate of 90% or more (almost completely withered))
blackgrass
  herbicidal effect on J: blackgrass: 4 (Herbicidal rate of 70% or more and less than 90%)
Italian ryegrass [7]
  herbicidal effect on K: Italian ryegrass: 5 (Herbicidal rate of 90% or more (almost completely withered))
Redroot pigweed [8]
  herbicidal effect on N: redroot pigweed: 5 (Herbicidal rate of 90% or more (almost completely withered))
